Experimental data taken from patent US20240376100A1 (Redona Therapeutics, Inc., priority 2021, published 2024).
Counter-ions that a name gives are not always drawn.

Target: PAPD5 enzyme (Homo sapiens, UniProt Q8NDF8)
Experiment: PAPD5 assay (AMP incorporation onto 3'-terminus of RNA substrate, fluorescence quench)
Format: biochemical
Conditions: PAPD5 protein 0.3 nM, ATP 50 μM, 30 minutes preincubation, room temperature; read-out: Potency PAPD5 IC50
Procedure: The purpose of the PAPD5 assay is to determine compound potency against PAPD5 enzyme through the measurement of IC50. Compound inhibition is measured as a function of AMP incorporation onto the 3′-terminus of an RNA substrate in the presence of active PAPD5, ATP, and inhibitor. The PAPD5 assay was done in a black, non-binding, 384 well plate (Corning #3575). All steps were performed at room temperature. For a typical assay, a 40 ul aliquot of assay buffer (50 mM HEPES pH 7.3, 20 mM KCl, 10 mM MgCl2, 10 mMM DTT, 0.01% Triton X-100, 40 U/ml RNAsin (Promega)) containing PAPD5 protein (final 10 concentration: 0.3 nM) and ATP (final concentration 50 μM) was added to each well. Next, 1 ul of compound in 100% DMSO is transferred from a compound dilution plate in which the compound is serially diluted. The plate was placed on a plate shaker for 30 seconds to produce mixing, then incubated for 30 minutes. Next, 10 ul of a 5× mix of RNA substrate (5′-fluorescein-AUAGAG-3′ (IDT)) and a DNA oligonucleotide that is complementary to the AMP modified RNA product (5′-TCTCTATT-3′-TAMRA, wherein the first two nucleotides are locked nucleic acids (IDT)) was added (final concentrations: 5 nM and 20 nM, respectively). The plate was placed on a plate shaker for 30 seconds to produce mixing then immediately placed in a Biotek Cytation 5 plate reader, and the time-dependent decrease in fluorescein fluorescence resulting from annealing of the TAMRA labeled quenching probe was recorded, using the kinetics mode of the reader (typical run time is 90 minutes). Reaction rates were obtained using linear fits to the early portion of progress curves. IC50 values were calculated using a four-parameter fit with 100% enzyme activity determined from the DMSO control and 0% activity from control samples lacking UTP.
“+” represents an IC50 value that is greater than 50 PM; “++” represents an IC50 value that is greater than 10 μM and equal to or less than 50 μM; “+++” represents an IC50 value that is greater than 1 μM and equal to or less than 10 μM; and “++++” represents an IC50 value that is equal to or less than 1 μM.

PAPD5 enzyme, sequence (Q8NDF8 whole entry): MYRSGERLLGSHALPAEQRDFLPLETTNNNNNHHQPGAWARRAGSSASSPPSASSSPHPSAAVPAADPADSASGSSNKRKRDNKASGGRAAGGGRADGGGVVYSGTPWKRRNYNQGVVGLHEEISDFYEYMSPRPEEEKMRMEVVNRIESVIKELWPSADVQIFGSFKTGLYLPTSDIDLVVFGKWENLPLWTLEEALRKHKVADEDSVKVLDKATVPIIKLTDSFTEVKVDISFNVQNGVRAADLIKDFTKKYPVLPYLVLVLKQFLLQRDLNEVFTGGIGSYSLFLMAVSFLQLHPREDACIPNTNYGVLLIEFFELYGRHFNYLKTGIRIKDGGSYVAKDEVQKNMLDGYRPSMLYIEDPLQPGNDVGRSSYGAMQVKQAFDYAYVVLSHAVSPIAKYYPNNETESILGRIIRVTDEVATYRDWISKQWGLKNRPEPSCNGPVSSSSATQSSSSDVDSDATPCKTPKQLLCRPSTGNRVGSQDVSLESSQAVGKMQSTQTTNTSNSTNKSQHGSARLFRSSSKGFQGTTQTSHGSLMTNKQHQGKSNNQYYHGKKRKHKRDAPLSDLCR

Compound: O=C(O)c1cn(-c2cnccn2)c2nc(N3Cc4cccnc4C3)c(Cl)cc2c1=O [Example 2, 6-chloro-4-oxo-1-(pyrazin-2-yl)-7{5H,6H,7H pyrrolo[3,4-b]pyridin-6-yl}-1,4-dihydro-1,8-naphthyridine-3-carboxylic acid]
- IC50: ≤ 1 µM

Compound: O=C(O)c1cn(-c2ccc(O)c(F)c2)c2cc(N3Cc4cccnc4C3)c(Cl)cc2c1=O [Example 3, 6-chloro-1-(3-fluoro-4-hydroxyphenyl)-4-oxo-7-{5H,6H,7H-pyrrolo[3,4-b]pyridin-6-yl}-1,4-dihydroquinoline-3-carboxylic acid]
- IC50: ≤ 1 µM

Compound: Cc1cc(NC(=O)OC(C)(C)C)ncc1-n1cc(C(=O)O)c(=O)c2cc(Cl)c(N3Cc4cccnc4C3)cc21 [Example 4, 1-(6-{[(tert-butoxy)carbonyl]amino}-4-methylpyridin-3-yl)-6-chloro-4-oxo-7-{5H,6H,7H-pyrrolo[3,4-b]pyridin-6-yl}-1,4-dihydroquinoline-3-carboxylic acid]
- IC50: ≤ 1 µM

Compound: Cc1cc(N)ncc1-n1cc(C(=O)O)c(=O)c2cc(Cl)c(N3Cc4cccnc4C3)cc21 [Example 5, 1-(6-amino-4-methylpyridin-3-yl)-6-chloro-4-oxo-7-{5H,6H,7H-pyrrolo[3,4-b]pyridin-6-yl}-1,4-dihydroquinoline-3-carboxylicacid hydrochloride]
- IC50: ≤ 1 µM

Compound: O=C(O)c1cn(CC2CCC2)c2nc(N3Cc4cccnc4C3)c(Cl)cc2c1=O [Example 6, 6-chloro-1-(cyclobutylmethyl)-4-oxo-7-{5H,6H,7H-pyrrolo[3,4-b]pyridin-6-yl}-1,4-dihydro-1,8-naphthyridine-3-carboxylic acid]
- IC50: ≤ 1 µM

Compound: N#Cc1cc2c(=O)c(C(=O)O)cn(CC3CCC3)c2nc1N1Cc2cccnc2C1 [Example 7, 6-cyano-1-(cyclobutylmethyl)-4-oxo-7-{5H,6H,7H-pyrrolo[3,4-b]pyridin-6-yl}-1,4-dihydro-1,8-naphthyridine-3-carboxylic acid]
- IC50: ≤ 1 µM

Compound: O=C(O)c1cn(-c2ccc(O)cc2F)c2cc(-n3ncc4cccc(Br)c43)c(F)cc2c1=O [Example 9, 7-(7-bromo-1H-indazol-1-yl)-6-fluoro-1-(2-fluoro-4-hydroxyphenyl)-4-oxo-1,4-dihydroquinoline-3-carboxylic acid]
- IC50: ≤ 1 µM

Compound: O=C(O)c1cn(-c2ccc(O)cc2F)c2cc(-n3ncc4cc(Cl)cc(Cl)c43)c(F)cc2c1=O [Example 10, 7-(5,7-dichloro-1H-indazol-1-yl)-6-fluoro-1-(2-fluoro-4-hydroxyphenyl)-4-oxo-1,4-dihydroquinoline-3-carboxylic acid]
- IC50: ≤ 1 µM

Compound: Cc1nn(-c2cc3c(cc2F)c(=O)c(C(=O)O)cn3-c2ccc(O)cc2F)cc1Br [Example 11, 7-(4-bromo-3-methyl-1H-pyrazol-1-yl)-6-fluoro-1-(2-fluoro-4-hydroxyphenyl)-4-oxo-1,4-dihydroquinoline-3-carboxylic acid]
- IC50: ≤ 1 µM

Compound: O=C(O)c1cn(-c2ccc(O)cc2F)c2cc(-n3ccc(Cl)n3)c(F)cc2c1=O [Example 12, 7-(3-chloro-1H-pyrazol-1-yl)-6-fluoro-1-(2-fluoro-4-hydroxyphenyl)-4-oxo-1,4-dihydroquinoline-3-carboxylic acid]
- IC50: ≤ 1 µM

Compound: COc1ccc2c(c1)CN(c1cc3c(cc1F)c(=O)c(C(=O)O)cn3-c1ccc(O)cc1F)C2 [Example 14, 6-fluoro-1-(2-fluoro-4-hydroxyphenyl)-7-(5-methoxyisoindolin-2-yl)-4-oxo-1,4-dihydroquinoline-3-carboxylic acid]
- IC50: ≤ 1 µM

Compound: O=C(O)c1cn(-c2ccc(O)cc2F)c2cc(N3Cc4cccc(F)c4C3)c(F)cc2c1=O [Example 15, 6-fluoro-1-(2-fluoro-4-hydroxyphenyl)-7-(4-fluoroisoindolin-2-yl)-4-oxo-1,4-dihydroquinoline-3-carboxylic acid]
- IC50: ≤ 1 µM

Compound: O=C(O)c1cn(-c2ccc(O)cc2)c2cc(N3Cc4cccnc4C3)c(Cl)cc2c1=O [Example 16, 6-chloro-7-(5,7-dihydro-6H-pyrrolo[3,4-b]pyridin-6-yl)-1-(4-hydroxyphenyl)-4-oxo-1,4-dihydroquinoline-3-carboxylic acid]
- IC50: ≤ 1 µM

Compound: O=C(O)c1cn(-c2ccc(CO)cc2F)c2cc(N3Cc4cccnc4C3)c(Cl)cc2c1=O [Example 17, 6-chloro-7-(5,7-dihydro-6H-pyrrolo[3,4-b]pyridin-6-yl)-1-(2-fluoro-4-(hydroxymethyl)phenyl)-4-oxo-1,4-dihydroquinoline-3-carboxylic acid]
- IC50: ≤ 1 µM

Compound: O=C(O)c1cn(-c2ccc(O)cc2)c2cc(N3Cc4cccnc4C3)c(F)cc2c1=O [Example 18, 7-(5,7-dihydro-6H-pyrrolo[3,4-b]pyridin-6-yl)-6-fluoro-1-(4-hydroxyphenyl)-4-oxo-1,4-dihydroquinoline-3-carboxylic acid]
- IC50: ≤ 1 µM

Compound: O=C(O)c1cn(-c2ccc(O)cc2)c2cc(N3Cc4ccncc4C3)c(F)cc2c1=O [Example 19, 7-(1,3-dihydro-2H-pyrrolo[3,4-c]pyridin-2-yl)-6-fluoro-1-(4-hydroxyphenyl)-4-oxo-1,4-dihydroquinoline-3-carboxylic acid]
- IC50: ≤ 1 µM

Compound: O=C(O)c1cn(-c2cnccn2)c2cc(N3Cc4ccccc4C3)c(Cl)cc2c1=O [Example 21, 6-chloro-7-(isoindolin-2-yl)-4-oxo-1-(pyrazin-2-yl)-1,4-dihydroquinoline-3-carboxylic acid]
- IC50: ≤ 1 µM

Compound: CN(C)C1CN(c2ccc(-n3cc(C(=O)O)c(=O)c4cc(Cl)c(N5Cc6cccnc6C5)nc43)cn2)C1 [Example 22, 6-chloro-7-(5,7-dihydro-6H-pyrrolo[3,4-b]pyridin-6-yl)-1-(6-(3-(dimethylamino)azetidin-1-yl)pyridin-3-yl)-4-oxo-1,4-dihydro-1,8-naphthyridine-3-carboxylic acid]
- IC50: ≤ 1 µM

Compound: Nc1ncc(-n2cc(C(=O)O)c(=O)c3cc(Cl)c(N4Cc5cccnc5C4)cc32)cc1F [Example 23, 1-(6-amino-5-fluoropyridin-3-yl)-6-chloro-7-(5,7-dihydro-6H-pyrrolo-[3,4-b]pyridin-6-yl)-4-oxo-1,4-dihydroquinoline-3-carboxylic acid]
- IC50: ≤ 1 µM

Compound: Cc1nc(N)ccc1-n1cc(C(=O)O)c(=O)c2cc(Cl)c(N3Cc4cccnc4C3)cc21 [Example 24, 1-(6-amino-2-methylpyridin-3-yl)-6-chloro-7-(5,7-dihydro-6H-pyrrolo[3,4-b]pyridin-6-yl)-4-oxo-1,4-dihydroquinoline-3-carboxylic acid]
- IC50: ≤ 1 µM

Compound: Cc1cc(N2CC(N(C)C)C2)ncc1-n1cc(C(=O)O)c(=O)c2cc(Cl)c(N3Cc4cccnc4C3)cc21 [Example 25, 6-chloro-7-(5,7-dihydro-6H-pyrrolo[3,4-b]pyridin-6-yl)-1-(6-(3-(dimethylamino)azetidin-1-yl)-4-methylpyridin-3-yl)-4-oxo-1,4-dihydroquinoline-3-carboxylic acid]
- IC50: ≤ 1 µM

Compound: O=C(O)c1cn(-c2ccc(O)cc2F)c2cc(N3Cc4cccnc4C3)c(Cl)cc2c1=O [Example 27, 6-chloro-7-(5,7-dihydro-6H-pyrrolo[3,4-b]pyridin-6-yl)-1-(2-fluoro-4-hydroxyphenyl)-4-oxo-1,4-dihydroquinoline-3-carboxylic acid]
- IC50: ≤ 1 µM

Compound: O=C(O)c1cn(-c2ccc(O)c(F)c2)c2cc(N3Cc4cccnc4C3)c(F)cc2c1=O [Example 28, 7-(5,7-dihydro-6H-pyrrolo[3,4-b]pyridin-6-yl)-6-fluoro-1-(3-fluoro-4-hydroxyphenyl)-4-oxo-1,4-dihydroquinoline-3-carboxylic acid]
- IC50: ≤ 1 µM

Compound: O=C(O)c1cn(-c2ccc(O)cc2F)c2cc(N3Cc4cccnc4C3)c(F)cc2c1=O [Example 29, 7-(5,7-dihydro-6H-pyrrolo[3,4-b]pyridin-6-yl)-6-fluoro-1-(2-fluoro-4-hydroxyphenyl)-4-oxo-1,4-dihydroquinoline-3-carboxylic acid]
- IC50: ≤ 1 µM

Compound: O=C(O)c1cn(-c2ccc(O)cc2F)c2cc(N3Cc4ccccc4C3)c(Cl)cc2c1=O [Example 30, 6-chloro-1-(2-fluoro-4-hydroxyphenyl)-7-(isoindolin-2-yl)-4-oxo-1,4-dihydroquinoline-3-carboxylic acid]
- IC50: ≤ 1 µM

Compound: O=C(O)c1cn(-c2ccc(O)c(F)c2)c2cc(N3Cc4ccccc4C3)c(F)cc2c1=O [Example 31, 6-fluoro-1-(3-fluoro-4-hydroxyphenyl)-7-(isoindolin-2-yl)-4-oxo-1,4-dihydroquinoline-3-carboxylic acid]
- IC50: ≤ 1 µM

Compound: O=C(O)c1cn(-c2ccc(O)cc2F)c2cc(N3Cc4ccccc4C3)c(F)cc2c1=O [Example 32, 6-fluoro-1-(2-fluoro-4-hydroxyphenyl)-7-(isoindolin-2-yl)-4-oxo-1,4-dihydroquinoline-3-carboxylic acid]
- IC50: ≤ 1 µM
